ChEMBL document CHEMBL5653615 (J Biol Chem, 2013)

Key:
[1] = target: T1, Ephrin type-B receptor 2 (Homo sapiens) (UniProt P29323); assay: Inhibition of human EPHB2 at 18.6 nM by HotSpot assay relative to control
T1 sequence (whole entry): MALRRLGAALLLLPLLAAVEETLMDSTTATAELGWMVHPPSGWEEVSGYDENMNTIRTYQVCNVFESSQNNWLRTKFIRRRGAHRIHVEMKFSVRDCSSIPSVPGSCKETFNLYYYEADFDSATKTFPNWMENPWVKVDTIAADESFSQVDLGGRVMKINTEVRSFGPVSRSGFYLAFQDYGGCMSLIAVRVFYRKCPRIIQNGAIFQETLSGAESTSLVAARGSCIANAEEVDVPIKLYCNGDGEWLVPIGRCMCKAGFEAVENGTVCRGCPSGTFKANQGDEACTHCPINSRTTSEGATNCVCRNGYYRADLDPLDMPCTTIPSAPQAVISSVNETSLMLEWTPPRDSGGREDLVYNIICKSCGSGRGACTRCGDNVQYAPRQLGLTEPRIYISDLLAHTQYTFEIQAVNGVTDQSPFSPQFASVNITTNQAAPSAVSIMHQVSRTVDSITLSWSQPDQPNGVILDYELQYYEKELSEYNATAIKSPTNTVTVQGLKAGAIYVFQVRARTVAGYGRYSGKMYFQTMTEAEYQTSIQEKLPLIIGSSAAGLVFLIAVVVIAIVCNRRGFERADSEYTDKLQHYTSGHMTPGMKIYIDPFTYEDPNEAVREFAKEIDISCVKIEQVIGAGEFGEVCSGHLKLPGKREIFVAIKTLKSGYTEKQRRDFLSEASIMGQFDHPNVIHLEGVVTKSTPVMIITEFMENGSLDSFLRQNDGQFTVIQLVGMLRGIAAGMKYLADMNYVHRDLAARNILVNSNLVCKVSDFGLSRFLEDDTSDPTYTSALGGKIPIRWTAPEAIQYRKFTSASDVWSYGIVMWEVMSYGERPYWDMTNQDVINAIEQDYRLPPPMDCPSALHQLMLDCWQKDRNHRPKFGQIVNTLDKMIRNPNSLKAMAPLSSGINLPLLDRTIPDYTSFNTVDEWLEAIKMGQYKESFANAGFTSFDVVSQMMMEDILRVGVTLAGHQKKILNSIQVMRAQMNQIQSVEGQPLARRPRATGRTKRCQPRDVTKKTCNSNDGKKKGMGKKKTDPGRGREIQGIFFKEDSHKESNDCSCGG

[2] = target: Protein kinase C eta type (Homo sapiens) (UniProt P24723); assay: Inhibition of human PKCeta at 18.6 nM by HotSpot assay relative to control
Chain of Protein kinase C eta type (Homo sapiens) (P24723 whole entry): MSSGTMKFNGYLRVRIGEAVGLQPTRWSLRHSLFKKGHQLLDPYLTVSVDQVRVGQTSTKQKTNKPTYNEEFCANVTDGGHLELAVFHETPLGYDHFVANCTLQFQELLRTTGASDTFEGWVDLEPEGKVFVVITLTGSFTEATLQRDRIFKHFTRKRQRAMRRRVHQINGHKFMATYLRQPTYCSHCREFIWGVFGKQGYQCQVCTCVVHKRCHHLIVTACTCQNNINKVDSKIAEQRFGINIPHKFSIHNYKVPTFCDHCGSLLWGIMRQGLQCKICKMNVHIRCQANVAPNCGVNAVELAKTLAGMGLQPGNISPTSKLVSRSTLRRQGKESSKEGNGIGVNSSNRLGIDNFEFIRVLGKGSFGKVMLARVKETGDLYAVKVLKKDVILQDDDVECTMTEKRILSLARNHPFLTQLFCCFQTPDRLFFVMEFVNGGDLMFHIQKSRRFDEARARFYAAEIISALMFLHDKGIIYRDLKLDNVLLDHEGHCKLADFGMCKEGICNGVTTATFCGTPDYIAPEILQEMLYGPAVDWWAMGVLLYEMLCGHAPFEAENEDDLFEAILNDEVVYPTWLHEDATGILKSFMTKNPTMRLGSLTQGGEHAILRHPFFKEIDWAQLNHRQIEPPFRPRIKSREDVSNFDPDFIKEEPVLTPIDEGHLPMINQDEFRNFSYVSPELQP

[3] = target: T2, Activin receptor type-1B (Homo sapiens) (UniProt P36896); assay: Inhibition of human ALK4 at 1.82 nM by HotSpot assay relative to control
T2 sequence (whole entry): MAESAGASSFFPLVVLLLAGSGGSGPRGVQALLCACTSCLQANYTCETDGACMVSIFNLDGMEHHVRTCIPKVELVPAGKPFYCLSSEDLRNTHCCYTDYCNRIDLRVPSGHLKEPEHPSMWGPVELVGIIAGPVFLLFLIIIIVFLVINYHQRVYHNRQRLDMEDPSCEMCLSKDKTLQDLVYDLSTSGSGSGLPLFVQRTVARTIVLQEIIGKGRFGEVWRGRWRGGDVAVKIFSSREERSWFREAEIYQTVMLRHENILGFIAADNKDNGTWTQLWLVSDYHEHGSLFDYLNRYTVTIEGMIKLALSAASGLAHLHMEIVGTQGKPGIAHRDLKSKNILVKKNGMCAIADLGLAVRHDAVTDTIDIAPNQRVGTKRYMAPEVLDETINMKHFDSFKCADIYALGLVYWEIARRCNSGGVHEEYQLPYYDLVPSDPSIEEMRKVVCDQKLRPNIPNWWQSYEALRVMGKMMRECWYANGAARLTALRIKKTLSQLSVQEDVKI

[4] = target: MAP kinase-interacting serine/threonine-protein kinase 2 (Homo sapiens) (UniProt Q9HBH9); assay: Inhibition of human MNK2 at 1.82 nM by HotSpot assay relative to control
Chain of MAP kinase-interacting serine/threonine-protein kinase 2 (Homo sapiens) (Q9HBH9 whole entry, looked up): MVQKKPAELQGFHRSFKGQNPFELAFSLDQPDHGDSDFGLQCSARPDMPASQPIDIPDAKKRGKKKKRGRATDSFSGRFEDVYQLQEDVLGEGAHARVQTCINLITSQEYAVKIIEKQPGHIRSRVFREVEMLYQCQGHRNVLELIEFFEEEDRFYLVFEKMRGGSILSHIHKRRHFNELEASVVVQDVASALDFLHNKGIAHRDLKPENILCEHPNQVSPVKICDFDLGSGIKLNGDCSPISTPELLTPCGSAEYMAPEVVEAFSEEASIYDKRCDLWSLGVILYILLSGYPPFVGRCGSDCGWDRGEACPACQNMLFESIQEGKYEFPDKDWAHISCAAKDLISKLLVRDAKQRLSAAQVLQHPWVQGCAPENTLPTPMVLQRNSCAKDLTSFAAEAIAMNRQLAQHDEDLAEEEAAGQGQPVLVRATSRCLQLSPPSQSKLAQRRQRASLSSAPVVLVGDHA

[5] = target: Homeodomain-interacting protein kinase 1 (Homo sapiens) (UniProt Q86Z02); assay: Inhibition of human HIPK1 at 1.82 nM by HotSpot assay relative to control
Chain of Homeodomain-interacting protein kinase 1 (Homo sapiens) (Q86Z02 whole entry, looked up): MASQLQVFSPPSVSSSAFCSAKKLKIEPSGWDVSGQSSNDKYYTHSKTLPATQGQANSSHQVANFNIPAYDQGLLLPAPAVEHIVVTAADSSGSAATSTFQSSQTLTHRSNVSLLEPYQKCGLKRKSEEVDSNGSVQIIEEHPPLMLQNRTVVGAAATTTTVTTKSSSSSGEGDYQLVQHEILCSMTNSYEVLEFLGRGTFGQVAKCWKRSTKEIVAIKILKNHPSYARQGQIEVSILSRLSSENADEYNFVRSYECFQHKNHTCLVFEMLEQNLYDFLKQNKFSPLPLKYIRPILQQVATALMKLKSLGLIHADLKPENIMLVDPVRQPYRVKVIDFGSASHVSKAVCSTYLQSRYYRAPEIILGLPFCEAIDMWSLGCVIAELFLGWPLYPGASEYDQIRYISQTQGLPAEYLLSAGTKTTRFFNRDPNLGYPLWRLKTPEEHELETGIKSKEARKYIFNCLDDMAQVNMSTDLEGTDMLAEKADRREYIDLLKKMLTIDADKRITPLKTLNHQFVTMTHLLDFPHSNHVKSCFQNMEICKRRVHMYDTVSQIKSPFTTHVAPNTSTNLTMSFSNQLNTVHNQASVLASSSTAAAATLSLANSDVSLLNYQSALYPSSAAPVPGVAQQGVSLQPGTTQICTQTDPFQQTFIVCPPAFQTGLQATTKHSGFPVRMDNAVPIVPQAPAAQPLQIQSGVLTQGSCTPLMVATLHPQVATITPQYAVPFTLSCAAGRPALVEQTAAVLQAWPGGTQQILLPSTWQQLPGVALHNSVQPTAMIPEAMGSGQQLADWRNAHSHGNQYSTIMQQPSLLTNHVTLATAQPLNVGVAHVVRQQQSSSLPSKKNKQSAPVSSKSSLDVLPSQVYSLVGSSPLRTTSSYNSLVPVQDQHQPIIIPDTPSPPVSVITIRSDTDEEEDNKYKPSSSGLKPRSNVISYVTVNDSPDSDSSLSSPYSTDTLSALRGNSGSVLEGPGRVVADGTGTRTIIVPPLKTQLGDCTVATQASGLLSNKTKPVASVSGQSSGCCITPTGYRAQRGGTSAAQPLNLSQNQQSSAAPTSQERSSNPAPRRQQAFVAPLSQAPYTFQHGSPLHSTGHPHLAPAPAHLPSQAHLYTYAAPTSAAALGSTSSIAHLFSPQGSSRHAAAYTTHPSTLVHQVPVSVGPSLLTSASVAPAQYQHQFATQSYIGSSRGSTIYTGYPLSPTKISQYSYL

[6] = target: Ribosomal protein S6 kinase beta-2 (Homo sapiens) (UniProt Q9UBS0); assay: Inhibition of human RPS6KB2 at 1.82 nM by HotSpot assay relative to control
Chain of Ribosomal protein S6 kinase beta-2 (Homo sapiens) (Q9UBS0 whole entry, the tested form may be a part): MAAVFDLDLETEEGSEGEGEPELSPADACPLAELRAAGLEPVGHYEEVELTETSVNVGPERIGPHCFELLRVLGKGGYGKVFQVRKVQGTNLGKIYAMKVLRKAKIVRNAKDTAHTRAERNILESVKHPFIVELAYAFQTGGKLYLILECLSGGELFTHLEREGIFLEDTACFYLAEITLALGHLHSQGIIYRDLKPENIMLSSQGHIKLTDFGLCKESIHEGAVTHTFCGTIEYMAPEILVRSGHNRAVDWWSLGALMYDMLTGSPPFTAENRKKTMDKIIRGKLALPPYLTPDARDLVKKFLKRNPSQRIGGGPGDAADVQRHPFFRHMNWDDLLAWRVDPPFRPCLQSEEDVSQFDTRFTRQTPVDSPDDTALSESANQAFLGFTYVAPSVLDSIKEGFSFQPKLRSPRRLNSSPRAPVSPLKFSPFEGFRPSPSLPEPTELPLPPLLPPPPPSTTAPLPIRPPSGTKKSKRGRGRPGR

[7] = target: T3, Discoidin domain-containing receptor 2 (Homo sapiens) (UniProt Q16832); assay: Inhibition of human DDR2 at 1.82 nM by HotSpot assay relative to control
T3 sequence (whole entry): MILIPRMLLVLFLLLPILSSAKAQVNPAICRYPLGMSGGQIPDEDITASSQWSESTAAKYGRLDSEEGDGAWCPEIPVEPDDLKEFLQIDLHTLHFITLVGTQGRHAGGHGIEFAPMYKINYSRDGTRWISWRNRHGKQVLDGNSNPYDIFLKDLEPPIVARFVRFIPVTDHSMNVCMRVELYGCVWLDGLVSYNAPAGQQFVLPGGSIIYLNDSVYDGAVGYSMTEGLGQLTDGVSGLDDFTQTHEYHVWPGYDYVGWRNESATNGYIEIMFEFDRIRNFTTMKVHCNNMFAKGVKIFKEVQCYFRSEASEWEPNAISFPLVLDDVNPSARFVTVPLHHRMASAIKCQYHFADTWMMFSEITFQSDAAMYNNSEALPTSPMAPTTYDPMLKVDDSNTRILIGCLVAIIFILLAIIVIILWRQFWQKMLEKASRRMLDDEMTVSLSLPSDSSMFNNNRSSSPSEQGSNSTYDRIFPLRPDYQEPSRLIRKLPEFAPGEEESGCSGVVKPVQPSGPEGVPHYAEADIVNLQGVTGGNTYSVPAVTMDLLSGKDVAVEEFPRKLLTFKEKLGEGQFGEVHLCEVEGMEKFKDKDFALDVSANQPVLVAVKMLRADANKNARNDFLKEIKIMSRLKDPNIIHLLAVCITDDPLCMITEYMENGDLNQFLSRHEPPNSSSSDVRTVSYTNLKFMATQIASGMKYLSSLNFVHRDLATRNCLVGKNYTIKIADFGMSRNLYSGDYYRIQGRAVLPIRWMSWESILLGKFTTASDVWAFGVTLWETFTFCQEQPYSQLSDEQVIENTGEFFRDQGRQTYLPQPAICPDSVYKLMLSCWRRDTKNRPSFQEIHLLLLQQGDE

[8] = target: Mast/stem cell growth factor receptor Kit (Homo sapiens) (UniProt P10721); assay: Inhibition of human c-Kit at 1.82 nM by HotSpot assay relative to control
Chain of Mast/stem cell growth factor receptor Kit (Homo sapiens) (P10721 whole entry): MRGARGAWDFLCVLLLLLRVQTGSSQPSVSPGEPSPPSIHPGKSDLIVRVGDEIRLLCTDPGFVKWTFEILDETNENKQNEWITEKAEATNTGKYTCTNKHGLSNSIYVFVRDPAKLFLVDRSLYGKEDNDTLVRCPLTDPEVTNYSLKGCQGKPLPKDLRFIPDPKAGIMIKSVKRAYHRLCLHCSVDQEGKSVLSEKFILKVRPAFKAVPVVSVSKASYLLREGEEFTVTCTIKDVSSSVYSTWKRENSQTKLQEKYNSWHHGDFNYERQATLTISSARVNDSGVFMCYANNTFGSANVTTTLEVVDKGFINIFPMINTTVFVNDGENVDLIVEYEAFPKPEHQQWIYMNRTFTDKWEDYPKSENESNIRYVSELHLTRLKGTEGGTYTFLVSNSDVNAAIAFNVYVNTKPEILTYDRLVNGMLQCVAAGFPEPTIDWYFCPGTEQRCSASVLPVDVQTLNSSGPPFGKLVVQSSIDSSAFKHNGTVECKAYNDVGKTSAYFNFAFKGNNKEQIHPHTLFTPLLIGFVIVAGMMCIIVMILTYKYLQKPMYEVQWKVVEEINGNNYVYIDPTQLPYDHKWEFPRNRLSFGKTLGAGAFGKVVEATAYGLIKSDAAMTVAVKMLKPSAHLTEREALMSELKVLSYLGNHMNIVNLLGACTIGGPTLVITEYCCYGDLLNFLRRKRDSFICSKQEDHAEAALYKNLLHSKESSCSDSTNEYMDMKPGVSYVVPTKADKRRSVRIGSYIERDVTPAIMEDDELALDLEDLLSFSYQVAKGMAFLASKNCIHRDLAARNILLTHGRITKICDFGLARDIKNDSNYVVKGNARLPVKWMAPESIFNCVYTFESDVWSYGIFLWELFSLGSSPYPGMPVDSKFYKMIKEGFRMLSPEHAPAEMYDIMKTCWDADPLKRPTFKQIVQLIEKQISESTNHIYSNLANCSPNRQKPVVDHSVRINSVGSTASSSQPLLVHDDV

Structure (SMILES) | inhibition [1] [%] | inhibition [2] [%] | inhibition [3] [%] | inhibition [4] [%] | inhibition [5] [%] | inhibition [6] [%] | inhibition [7] [%] | inhibition [8] [%]
C[C@]1(O)C[C@@H](c2nc(-c3ccc4ccc(-c5ccccc5)nc4c3)c3c(N)nccn32)C1 | -7.65 | 1.29 | – | – | – | – | – | –
C[C@@]1(C(=O)Nc2ccc(F)nc2)CCCN1c1nc(Nc2cc(C3CC3)n[nH]2)c2cccn2n1 | – | – | 0.66 | -4.8 | -6.64 | -0.77 | -7.91 | 2.48
